The values that follow come from patent US10196403B2, “Compounds and compositions and uses thereof” (Sunovion Pharmaceuticals Inc., priority 2016, dated 2019).

This experiment concerns mice. Description: Neuropharmacological Assay (SmartCube). The class given is in vivo. As to conditions: for minimal effective dose: Mus musculus, read-out: POTENCY (minimal effective dose, MED); for minimal effective dose / POTENCY (minimal effective dose, MED): MED = dose having 50% or more total activity in SmartCube; for AD: ADHD (SmartCube probability) / AG: analgesic (SmartCube probability) / AX: anxiolytic (SmartCube probability) / CE: cognitive enhancer (SmartCube probability) / DP: anti-depressant (SmartCube probability) / MS: mood stabilizer (SmartCube probability) / PS: anti-psychotic (SmartCube probability) / SD: sedative hypnotic (SmartCube probability) / UN: uncharacterized CNS activity (SmartCube probability): mice, i.p. 15 min before test, most efficacious dose(s) of 3 doses. The source says: Neuropharmacological Assay (SmartCube™)
Neurosci. 2011 Sep. 9; 5:103 (doi: 10.3389/fnins.2011.00103) (“Roberds”). As reported in Roberds, because psychiatric diseases generally result from disorders of cell-cell communication, circuitry, intact systems are useful in detecting improvement in disease-relevant endpoints. These endpoints are typically behavioral in nature, often requiring human observation and interpretation. To facilitate testing of multiple compounds for behavioral effects relevant to psychiatric disease, PsychoGenics, Inc. (Tarrytown, N.Y., “PGI”) developed SmartCube™, an automated system in which behaviors of compound-treated mice are captured by digital video and analyzed with computer algorithms. (D. Brunner et al., Drug Discov. Today 2002, 7:S107-S112). PGI Analytical Systems uses data from SmartCube™ to compare the behavioral signature of a test compound to a database of behavioral signatures obtained using a large set of diverse reference compounds. (The composition of the database as well as validation of the method is further described in Roberds). In this way, the neuropharmacological effects of a test compound can be predicted by similarity to major classes of compounds, such as antipsychotics, anxiolytics and antidepressants.
The SmartCube™ system produces an activity signature indicating the probability that the activity of the test compound at the administered dose matches a given class of neuropharmacological agents. (See, e.g., Roberds, FIGS. 2 and 3). The test compound is simultaneously compared against multiple classes of agents; thus, a separate probability is generated for each behavioral effect measured (e.g., anxiolytic activity, analgesic activity, etc.). In the table below, these probabilities are reported for each behavioral effect measured as follows:
where LOQ is the limit of quantification.
Provided compounds were dissolved in a mixture of Pharmasolve™ (N-methyl-2-pyrrolidone), polyethylene glycol and propylene glycol, and were injected i.p. 15 min. before the behavioral test. For each compound, injections were administered at 3 different doses. For each behavioral effect measured, results for the most efficacious dose(s) are presented. In the table below, DP: anti-depressant; AX: anxiolytic; SD: sedative hypnotic; PS: anti-psychotic; MS: mood stabilizer; AD: ADHD; CE: cognitive enhancer; AG: analgesic; UN: uncharacterized CNS activity.
The potency of many of the compounds in the table was also determined in the SmartCube™ system. Test compounds were routinely examined at dose levels of 0.3, 1, 3 10 and 30 mg per kg (mpk), although the dose range was increased or decreased if necessary to obtain a full dose response curve. A compound's minimal effective dose (MED) is a measure of the compounds potency. The MED was defined as the dose (in mpk) having 50% or more total activity in SmartCube.

With `CNC[C@@H]1OCCc2c(Cl)cccc21` [Example 33, (R)-1-(5-chloroisochroman-1-yl)-N-methylmethanamine], the minimal effective dose is less than 3 mg/kg, the “AD: ADHD (SmartCube probability)” value is on record as “+ (LOQ≤ + <5%)”, the “AG: analgesic (SmartCube probability)” value is “++ (5%≤ ++ <25%)” and the “AX: anxiolytic (SmartCube probability)” value is reported as “++ (5%≤ ++ <25%)”. The “CE: cognitive enhancer (SmartCube probability)” value (shortened to “CE: cognitive enhancer”) was “++ (5%≤ ++ <25%)”, the “DP: anti-depressant (SmartCube probability)” value (“DP: anti-depressant” for short) was “++++ (50%≤ ++++)”, the “MS: mood stabilizer (SmartCube probability)” value (“MS: mood stabilizer” for short) was “+ (LOQ≤ + <5%)” and the “PS: anti-psychotic (SmartCube probability)” value (“PS: anti-psychotic” for short) is given as “+ (LOQ≤ + <5%)”. The “SD: sedative hypnotic (SmartCube probability)” value (“SD: sedative hypnotic” below) is listed as “++ (5%≤ ++ <25%)” and the “UN: uncharacterized CNS activity (SmartCube probability)” value (from here on “UN: uncharacterized CNS activity”) was “+++ (25%≤ +++ <50%)”.
In the case of `NC[C@@H]1OCCc2ccc3c(c21)OCO3` [Example 8, (R)-(6,9-dihydro-7H-[1,3]dioxolo[4,5-h]isochromen-9-yl)methanamine], the minimal effective dose lay in the range of 3 to 10 mg/kg, the “AD: ADHD (SmartCube probability)” value is on record as “+ (LOQ≤ + <5%)”, the “AG: analgesic (SmartCube probability)” value is reported as “++ (5%≤ ++ <25%)” and the “AX: anxiolytic (SmartCube probability)” value is on record as “++ (5%≤ ++ <25%)”. For the same compound, the “CE: cognitive enhancer” value is on record as “++ (5%≤ ++ <25%)”, the “DP: anti-depressant” value was “++ (5%≤ ++ <25%)”, the “MS: mood stabilizer” value was “+ (LOQ≤ + <5%)” and the “PS: anti-psychotic” value is reported as “++ (5%≤ ++ <25%)”. Besides, the “SD: sedative hypnotic” value was “+ (LOQ≤ + <5%)” and the “UN: uncharacterized CNS activity” value is given as “+++ (25%≤ +++ <50%)”.
With `CNC[C@@H]1OCCc2c1cccc2C(F)(F)F` [Example 79], the minimal effective dose was less than 3 mg/kg, the “AD: ADHD (SmartCube probability)” value is listed as “++ (5%≤ ++ <25%)”, the “AG: analgesic (SmartCube probability)” value was “+ (LOQ≤ + <5%)” and the “AX: anxiolytic (SmartCube probability)” value was “+ (LOQ≤ + <5%)”. Also, the “CE: cognitive enhancer” value was “+ (LOQ≤ + <5%)”, the “DP: anti-depressant” value is reported as “++++ (50%≤ ++++)”, the “MS: mood stabilizer” value is “+ (LOQ≤ + <5%)” and the “PS: anti-psychotic” value was “+ (LOQ≤ + <5%)”. In addition, the “SD: sedative hypnotic” value was “++ (5%≤ ++ <25%)” and the “UN: uncharacterized CNS activity” value was “+ (LOQ≤ + <5%)”.
Regarding `CNC[C@H]1OCCc2ccc(F)cc21` [Example 13, (S)-1-(7-fluoroisochroman-1-yl)-N-methylmethanamine], the minimal effective dose is 10 to 30 mg/kg, the “AD: ADHD (SmartCube probability)” value is “+ (LOQ≤ + <5%)”, the “AG: analgesic (SmartCube probability)” value is recorded as “++ (5%≤ ++ <25%)” and the “AX: anxiolytic (SmartCube probability)” value was “++ (5%≤ ++ <25%)”. The “CE: cognitive enhancer” value was “+ (LOQ≤ + <5%)”, the “DP: anti-depressant” value is reported as “++ (5%≤ ++ <25%)”, the “MS: mood stabilizer” value is “+ (LOQ≤ + <5%)” and the “PS: anti-psychotic” value is “+ (LOQ≤ + <5%)”. Moreover, the “SD: sedative hypnotic” value is given as “++ (5%≤ ++ <25%)” and the “UN: uncharacterized CNS activity” value is recorded as “+++ (25%≤ +++ <50%)”.
For the compound `CNC[C@H]1OCCc2c(C)cccc21` [Example 38, (S)-N-methyl-1-(5-methylisochroman-1-yl)methanamine], the minimal effective dose is less than 3 mg/kg, the “AD: ADHD (SmartCube probability)” value is recorded as “+ (LOQ≤ + <5%)”, the “AG: analgesic (SmartCube probability)” value was “++ (5%≤ ++ <25%)” and the “AX: anxiolytic (SmartCube probability)” value is given as “++ (5%≤ ++ <25%)”. Further, the “CE: cognitive enhancer” value is listed as “+ (LOQ≤ + <5%)”, the “DP: anti-depressant” value is given as “++ (5%≤ ++ <25%)”, the “MS: mood stabilizer” value is on record as “+ (LOQ≤ + <5%)” and the “PS: anti-psychotic” value was “++ (5%≤ ++ <25%)”. Also, the “SD: sedative hypnotic” value was “++ (5%≤ ++ <25%)” and the “UN: uncharacterized CNS activity” value is given as “+++ (25%≤ +++ <50%)”.
Turning to `CNC[C@H]1OC[C@@H](O)c2ccc3c(c21)OCO3` (single isomer, unassigned) [Example 113], the minimal effective dose was more than 30 mg/kg, the “AD: ADHD (SmartCube probability)” value is “+ (LOQ≤ + <5%)”, the “AG: analgesic (SmartCube probability)” value is “+ (LOQ≤ + <5%)” and the “AX: anxiolytic (SmartCube probability)” value was “++ (5%≤ ++ <25%)”. In addition, the “CE: cognitive enhancer” value was “+ (LOQ≤ + <5%)”, the “DP: anti-depressant” value was “+ (LOQ≤ + <5%)”, the “MS: mood stabilizer” value was “+ (LOQ≤ + <5%)” and the “PS: anti-psychotic” value is reported as “+ (LOQ≤ + <5%)”. Also, the “SD: sedative hypnotic” value is “+ (LOQ≤ + <5%)” and the “UN: uncharacterized CNS activity” value is reported as “+ (LOQ≤ + <5%)”.
With `CNC[C@@H]1OCCc2c(OC)cccc21` [Example 63, (R)-1-(5-methoxyisochroman-1-yl)-N-methylmethanamine], the “POTENCY (minimal effective dose, MED)” value is “A-B”; the “AD: ADHD (SmartCube probability)” value is “++ (5%≤ ++ <25%)”; the “AG: analgesic (SmartCube probability)” value is reported as “+ (LOQ≤ + <5%)”; the “AX: anxiolytic (SmartCube probability)” value is reported as “++ (5%≤ ++ <25%)”. The “CE: cognitive enhancer” value is listed as “+ (LOQ≤ + <5%)”, the “DP: anti-depressant” value is recorded as “++++ (50%≤ ++++)”, the “MS: mood stabilizer” value was “+ (LOQ≤ + <5%)” and the “PS: anti-psychotic” value is recorded as “+ (LOQ≤ + <5%)”. In addition, the “SD: sedative hypnotic” value is listed as “++ (5%≤ ++ <25%)” and the “UN: uncharacterized CNS activity” value is on record as “++++ (50%≤ ++++)”.
`CNC[C@H]1OCCc2ccc(Cl)cc21` [Example 64, (S)-1-(7-chloroisochroman-1-yl)-N-methylmethanamine]: the “POTENCY (minimal effective dose, MED)” value is given as “A-B”; the “AD: ADHD (SmartCube probability)” value was “+ (LOQ≤ + <5%)”; the “AG: analgesic (SmartCube probability)” value was “++ (5%≤ ++ <25%)”; the “AX: anxiolytic (SmartCube probability)” value is “+++ (25%≤ +++ <50%)”. For the same compound, the “CE: cognitive enhancer” value was “++ (5%≤ ++ <25%)”, the “DP: anti-depressant” value is reported as “+ (LOQ≤ + <5%)”, the “MS: mood stabilizer” value was “+ (LOQ≤ + <5%)” and the “PS: anti-psychotic” value is listed as “++ (5%≤ ++ <25%)”. For the same compound, the “SD: sedative hypnotic” value is listed as “++ (5%≤ ++ <25%)” and the “UN: uncharacterized CNS activity” value is reported as “++++ (50%≤ ++++)”.
Take `CNC[C@H]1OCCc2c(F)cccc21` [Example 18, (S)-1-(5-fluoroisochroman-1-yl)-N-methylmethanamine]: the minimal effective dose was in the range of 10 to 30 mg/kg, the “AD: ADHD (SmartCube probability)” value is reported as “+ (LOQ≤ + <5%)”, the “AG: analgesic (SmartCube probability)” value was “++ (5%≤ ++ <25%)” and the “AX: anxiolytic (SmartCube probability)” value was “++ (5%≤ ++ <25%)”. Also, the “CE: cognitive enhancer” value was “++ (5%≤ ++ <25%)”, the “DP: anti-depressant” value is reported as “++ (5%≤ ++ <25%)”, the “MS: mood stabilizer” value was “+ (LOQ≤ + <5%)” and the “PS: anti-psychotic” value is “+ (LOQ≤ + <5%)”. Further, the “SD: sedative hypnotic” value is recorded as “+ (LOQ≤ + <5%)” and the “UN: uncharacterized CNS activity” value was “++ (5%≤ ++ <25%)”.
For `CNC[C@@H]1OCCc2ccc3c(c21)CCO3` [Example 107, (R)-N-methyl-1-(3,4,8,9-tetrahydro-1H-furo[2,3-h]isochromen-1-yl)methanamine], the minimal effective dose is 3 to 10 mg/kg, the “AD: ADHD (SmartCube probability)” value is recorded as “+ (LOQ≤ + <5%)”, the “AG: analgesic (SmartCube probability)” value is reported as “+ (LOQ≤ + <5%)” and the “AX: anxiolytic (SmartCube probability)” value is “++ (5%≤ ++ <25%)”. The “CE: cognitive enhancer” value is given as “+ (LOQ≤ + <5%)”, the “DP: anti-depressant” value is “++ (5%≤ ++ <25%)”, the “MS: mood stabilizer” value is recorded as “+ (LOQ≤ + <5%)” and the “PS: anti-psychotic” value was “++ (5%≤ ++ <25%)”. Moreover, the “SD: sedative hypnotic” value is “++ (5%≤ ++ <25%)” and the “UN: uncharacterized CNS activity” value is “+++ (25%≤ +++ <50%)”.
